Legend:
3LL cells = assay: inhibition of macropinocytosis (TMR-dextran uptake); format: cell-based, mouse
Experimental: (§1) Pharmacological Test 5 (Experiment of Inhibition of Macropinocytosis of Cancer Cells)
(§2) Macropinocytosis is a phenomenon in which cells take up various substances together with extracellular fluid while extending cellular membranes. Remodeling of actin cytoskeleton through Rac activity is known to be important.
(§3) One hundred and fifty microliters of 4×10^4 3LL cells or HT-1080 cells were seeded on the glass portion of fibronectin-coated glass-bottom culture dishes. After 16-hour culture at 37° C., the medium was changed to DMEM (serum free) and cultured for 24 hours to allow the cells to be serum-starved. Subsequently, the medium was changed to 2 mL of serum-free medium containing DMSO alone or DMSO in which each pyridinone compound was dissolved, followed by pretreatment for 1 hour. The final concentration of DMSO was adjusted to 0.2%.
(§4) The cells were added to 180 μL of medium with TMR-dextran (final concentration: 500 μg/mL)-containing DMEM (with 10% FBS) containing DMSO alone or DMSO in which a predetermined concentration of each pyridinone compound was dissolved, as in the case above, followed by incubation at 37° C. for 1 hour. Thereafter, the cells were fixed by 60-minute incubation at room temperature in a 4% paraformaldehyde solution. […] The macropinocytosis activity was measured based on the number of TMR-dextran spots per cell. […]

HT-1080 cells = assay: as above; format: cell-based, human
Experimental: as §1, §2, §3, §4

[1] = tested on: human colon cancer cell line (DLD-1); assay: cellular invasion inhibition assay (Matrigel chamber); format: cell-based; details: FIG. 12(D)
Experimental: Pharmacological Test 2 (Cellular Invasion Inhibition Assay)
Three hundred microliters of a suspension of a mouse lung carcinoma cell line (3LL), a human fibrosarcoma cell line (HT-1080), or a human colon cancer cell line (DLD-1) in DMEM (serum free) was placed in the upper chamber with Matrigel (BD Biosciences) equilibrated with DMEM (serum free) for 120 minutes, while 500 μL of DMEM (with 10% FCS) was placed in the lower chamber. Each pyridinone compound or CPYPP dissolved at a predetermined concentration in DMSO was added to the culture media in both the upper and lower chambers. As a control, DMSO alone was added to the media. In all of the experiments, the final DMSO concentration was adjusted to 0.2%.
After the resulting products were cultured at 37° C. under 5% CO2 for 22 hours, the chambers were removed, and the culture media were removed. […] After staining, the inserts were cut out with a blade to prepare slides, and the cells were counted under an optical microscope.
The results were evaluated based on percent cell invasion (%: Invasion) and percent inhibition (%: inhibition). The percent cell invasion was obtained by converting the number of invading cells under each condition to percentage, taking the number of invading cells in the control, to which DMSO was added alone, as 100%; and the percent inhibition was obtained by deducting the percent cell invasion from 100.

[2] = mouse body weight in the lung metastasis experiment; format: in vivo; details: 0.2, 0.6 or 2 mg/mouse iv, FIG. 17(D)
Experimental: (§5) Pharmacological Test 8 (Experiment for Inhibition of Lung Metastasis of Mouse Melanoma Cells)
(§6) Mouse melanoma B16F10 cells suspended in 200 μL of PBS(−) were injected (2.5 or 5×10^5 cells per mouse) into the tail vein of C57BL/6 mice (6 weeks old, female). […] For a control group, an equivalent amount of a solvent (a liquid mixture of PBS/CremophoreEL/ethanol (6:1:1)) alone was administered. The administration was performed 4 times in total: immediately before the cell transplantation, and day 1, day 3, and day 5 after the transplantation. Fourteen days after the first administration, the lung was excised from each mouse, and the number of tumor metastatic foci at the lung surface was counted.

[3] = tested on: mouse melanoma B16F10 cells; assay: inhibition of lung metastasis of mouse melanoma cells; format: in vivo
Experimental: as §5, §6

Row | SMILES | inhibition of macropinocytosis (3LL cells) | inhibition of macropinocytosis (HT-1080 cells) | inhibition of DLD-1 cell invasion [1] | mouse body weight [2] | metastasis of melanoma cells to the lung ([3]; C57BL/6 mice, 2 mg/mouse iv, 4 times, FIG. 17(B)) | number of cells that underwent metastasis to the lung, reduced to ([3]; dose of about 0.2 mg to a mouse, iv 4 times, FIG. 17(C))
1 | O=C(Cn1cc(S(=O)(=O)N2CCCC2)ccc1=O)c1ccc(-c2ccc3ccccc3c2)cc1 [TS-28, 1-(2-(4-(naphthalen-2-yl)phenyl)-2-oxoethyl)-5-(pyrrolidin-1-ylsulfonyl)pyridin-2(1H)-one] | inhibit macropinocytosis in 3LL cells and HT-1080 cells in a concentration-dependent manner | inhibit macropinocytosis in 3LL cells and HT-1080 cells in a concentration-dependent manner |  |  |  | 
2 | O=C(Cn1cc(S(=O)(=O)N2CCCC2)ccc1=O)c1ccc(-c2cccc(C(F)(F)F)c2)cc1 [TS-45, 1-(2-oxo-2-(3′-(trifluoromethyl)-[1,1′-biphenyl]-4-yl)ethyl)-5-(pyrrolidin-1-ylsulfonyl)pyridin-2(1H)-one] | inhibit macropinocytosis in 3LL cells and HT-1080 cells in a concentration-dependent manner | inhibit macropinocytosis in 3LL cells and HT-1080 cells in a concentration-dependent manner | inhibits DLD-1 cell invasion | not affected | significantly inhibited | about 20%
